Assay results: patent US9193704B2, “Hydantoin derivatives as KV3 inhibitors” (AUTIFONY THERAPEUTICS LIMITED, priority 2011, dated 2015)

Assays:
p-glycoprotein = assay: In vivo pharmacokinetic assay with the PgP transport inhibitor Elacridar; conditions: rat; Elacridar 3 mg/kg intravenous shortly before oral 1 mg/kg; 0.5 h; indicates absence of notable p-glycoprotein interactions
Experimental: Adult male rats (Charles River, Italy) were dosed with test compound orally at 1 mg/kg (5 ml/kg, in 5% v/v DMSO, 0.5% w/v HPMC in water) and intravenously at 0.5 mg/kg (2 ml/kg, in 5% v/v DMSO 40% w/v PEG400 in saline). After oral administration, blood samples were collected under deep Isofluorane anesthesia from the portal vein and heart of each rat (1 rat per time point). After intravenous administration, serial blood samples were collected from the lateral tail vein of each rat. A further group of rats (n=1 per test compound) received a single intravenous administration of the PgP transport inhibitor, Elacridar (3 mg/kg) shortly before the oral administration of the test compound at 1 mg/kg, as above. Blood and brain samples were collected at a single timepoint of 0.5 h after dose administration for these animals. In all cases, blood samples were collected into potassium EDTA tubes.
Blood and brain samples were assayed for test compound concentration using a method based on protein precipitation with acetonitrile followed by HPLC/MS-MS analysis with an optimized analytical method.
The concentrations of test compound in blood (expressed as ng/ml) and brain (expressed as ng/g) at the different time points following either oral or intravenous dosing were analysed using a non-compartmental pharmacokinetic model using WinNonLin Professional version 4.1. The following parameters were derived:
Oral dosing: Cmax, time of maximum concentration (Tmax), AUC, bioavailability (F %), fraction absorbed (Fa %), blood to brain ratio (AUC BB), and Fold-change in AUC BB in the presence of Elacridar.

[1] = test system: amphetamine induced hyperlocomotion; assay: Mouse model of amphetamine induced hyperlocomotion; assay type: in vivo; conditions: 60 mg/kg, 60 minute period following amphetamine administration, P<0.01
Experimental: Example 33 was tested in the_mouse model of amphetamine induced hyperlocomotion described in Example 93 of WO2011/069951A1.

[2] = biological target: T1, human Kv3.1 channels (hKv3.1) (Homo sapiens, UniProt P48547); assay: IonWorks Quattro electrophysiology, potentiation of hKv3.1 currents; assay type: cell-based; conditions: between Kv3.1 and Kv3.2 channels
T1 construct: expressed in transfected cells; host or cells: CHO/Gam/E1A-clone22 (CGE22) cells, CHO-K1-derived, transiently transduced with BacMam pFBM/human Kv3.1
T1 sequence (P48547 1-511): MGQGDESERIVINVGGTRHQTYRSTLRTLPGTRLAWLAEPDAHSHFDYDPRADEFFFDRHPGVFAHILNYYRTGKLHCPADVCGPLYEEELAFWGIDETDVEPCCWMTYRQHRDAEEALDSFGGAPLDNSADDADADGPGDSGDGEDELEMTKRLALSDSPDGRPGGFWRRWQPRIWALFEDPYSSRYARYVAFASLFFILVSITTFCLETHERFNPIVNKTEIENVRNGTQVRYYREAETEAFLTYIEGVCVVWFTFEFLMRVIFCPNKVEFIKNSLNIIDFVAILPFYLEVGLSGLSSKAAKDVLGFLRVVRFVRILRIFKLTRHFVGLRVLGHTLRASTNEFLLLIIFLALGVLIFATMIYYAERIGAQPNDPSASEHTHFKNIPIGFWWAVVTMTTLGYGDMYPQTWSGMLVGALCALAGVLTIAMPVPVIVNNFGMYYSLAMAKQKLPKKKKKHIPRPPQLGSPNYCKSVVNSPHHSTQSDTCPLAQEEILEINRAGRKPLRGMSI
Description: The ability of the compounds of the invention to modulate the voltage-gated potassium channel subtypes Kv3.2/3.1 may be determined using the following assay.
This cell line was designed to be an improved CHO-K1-based host for enhanced recombinant protein expression as compared to wild type CHO-K1. The cell line was generated following the transduction of CHO-K1 cells with a BacMam virus expressing the Adenovirus-Gam1 protein and selection with Geneticin-G418, to generate a stable cell line, CHO/Gam-A3. CHO/Gam-A3 cells were transfected with pCDNA3-E1A-Hygro, followed by hygromycin-B selection and FACS sorting to obtain single-cell clones. BacMam-Luciferase and BacMam-GFP viruses were then used in transient transduction studies to select the clone based on highest BacMam transduction and recombinant protein expression. […]
Experiments were conducted at room temperature using IonWorks Quattro™ planar array electrophysiology technology (Molecular Devices Corp.) with PatchPlate™ PPC. […] Planar electrode hole resistances(Rp) were determined by applying a 10 mV voltage step across each well. […] Test pulses protocol may be performed in the absence (pre-read) and presence (post-read) of the test compound. Pre- and post-reads may be separated by the compound addition followed by a 3 minute incubation. […]

Row | Structure (SMILES) | change in AUC BB in the presence of Elacridar (p-glycoprotein) | increase in locomotor activity induced by amphetamine [1] | difference in pEC50 values between the two channels [2]
1 | CC1(C)NC(=O)N(c2ccc(Oc3ccc4c(c3)C(C(C)(C)C)OC4)nc2)C1=O (single isomer, unassigned) [Example 50, 3-[6-[(3-tert-butyl-1,3-dihydroisobenzofuran-5-yl)oxy]-3-pyridyl]-5,5-dimethyl-imidazolidine-2,4-dione] | limited change |  | 
2 | CC1(C)NC(=O)N(c2ccc(Oc3ccc4c(c3)C(C)(C(F)(F)F)OC4)nc2)C1=O (single isomer, unassigned) [Example 52, 5,5-dimethyl-3-[6-[[3-methyl-3-(trifluoromethyl)-1H-isobenzofuran-5-yl]oxy]-3-pyridyl]imidazolidine-2,4-dione] | limited change |  | 
3 | CC1(C)NC(=O)N(c2cnc(Oc3ccc4c(c3)C3(CCCC3)OC4)nc2)C1=O [Example 12, 5,5-dimethyl-3-(2-spiro[1H-isobenzofuran-3,1′-cyclopentane]-5-yloxypyrimidin-5-yl)imidazolidine-2,4-dione] | limited change |  | 
4 | CC[C@@]1(C)NC(=O)N(c2ccc(Oc3ccc4c(c3)C(C)(C)OC4)nc2)C1=O [Example 33, (5R)-3-[6-[(3,3-dimethyl-1H-isobenzofuran-5-yl)oxy]-3-pyridyl]-5-ethyl-5-methyl-imidazolidine-2,4-dione] | limited change | completely prevented | 
5 | CC1(C)NC(=O)N(c2ccc(Oc3ccc4c(c3)C3(CCC3)OC4)nc2)C1=O [Example 58, 5,5-dimethyl-3-(6-spiro[1H-isobenzofuran-3,1′-cyclobutane]-5-yloxy-3-pyridyl)imidazolidine-2,4-dione] | limited change |  | 
6 | CC[C@H]1NC(=O)N(c2ccc(Oc3cccc4c3C3(CC3)CO4)nc2)C1=O [Reference Example 87, (5R)-5-ethyl-3-[6-(spiro[1-benzofuran-3,1′-cyclopropan]-4-yloxy)-3-pyridinyl]-2,4-imidazolidinedione] |  |  | 0.7 log unit
7 | CC1(C)NC(=O)N(c2ccc(Oc3cccc4c3C3(CC3)CO4)nc2)C1=O [Reference Example 88, 5,5-dimethyl-3-[6-(spiro[1-benzofuran-3,1′-cyclopropan]-4-yloxy)-3-pyridinyl]-2,4-imidazolidinedione] |  |  | 0.7 log unit
